≈ marks a conversion by molar mass, not a printed value. Where only a bound is given, the exact number is not on record here.

A short description of data set [1]: Intrinsic clearance in human liver microsomes. A general note: Liver microsomes are vesicles of endoplasmic reticulum, rich in cytochrome P450 enzymes.
The target of another data set is T1, Glucocorticoid receptor (Homo sapiens, UniProt P04150).
T1 sequence (P04150 whole entry): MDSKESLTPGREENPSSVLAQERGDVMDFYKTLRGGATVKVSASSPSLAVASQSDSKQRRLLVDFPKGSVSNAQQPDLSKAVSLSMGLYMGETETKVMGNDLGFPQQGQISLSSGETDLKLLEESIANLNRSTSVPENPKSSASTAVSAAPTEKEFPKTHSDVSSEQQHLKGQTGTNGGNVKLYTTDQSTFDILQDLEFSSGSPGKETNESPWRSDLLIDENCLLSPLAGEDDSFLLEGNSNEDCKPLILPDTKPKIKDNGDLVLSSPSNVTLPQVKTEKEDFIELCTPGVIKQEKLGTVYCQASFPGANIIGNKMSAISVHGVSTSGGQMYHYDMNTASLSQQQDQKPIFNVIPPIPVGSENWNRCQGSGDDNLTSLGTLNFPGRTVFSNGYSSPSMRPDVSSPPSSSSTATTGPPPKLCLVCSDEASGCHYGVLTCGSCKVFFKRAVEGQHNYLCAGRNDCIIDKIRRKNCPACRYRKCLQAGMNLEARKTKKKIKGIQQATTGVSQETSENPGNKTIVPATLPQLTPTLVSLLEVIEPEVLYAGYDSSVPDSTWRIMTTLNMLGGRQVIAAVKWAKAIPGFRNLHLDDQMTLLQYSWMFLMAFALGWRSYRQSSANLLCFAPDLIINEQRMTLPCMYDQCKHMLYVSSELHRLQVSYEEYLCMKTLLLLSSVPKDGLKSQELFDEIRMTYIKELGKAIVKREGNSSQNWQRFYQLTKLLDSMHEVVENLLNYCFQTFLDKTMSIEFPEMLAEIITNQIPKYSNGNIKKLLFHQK
Briefly: Binding affinity to GR (unknown origin) expressed in human IM9 cells. Type of data set: cell-based.

The next data set deals with T2, Estrogen receptor (Homo sapiens, UniProt P03372).
T2 sequence (P03372 whole entry): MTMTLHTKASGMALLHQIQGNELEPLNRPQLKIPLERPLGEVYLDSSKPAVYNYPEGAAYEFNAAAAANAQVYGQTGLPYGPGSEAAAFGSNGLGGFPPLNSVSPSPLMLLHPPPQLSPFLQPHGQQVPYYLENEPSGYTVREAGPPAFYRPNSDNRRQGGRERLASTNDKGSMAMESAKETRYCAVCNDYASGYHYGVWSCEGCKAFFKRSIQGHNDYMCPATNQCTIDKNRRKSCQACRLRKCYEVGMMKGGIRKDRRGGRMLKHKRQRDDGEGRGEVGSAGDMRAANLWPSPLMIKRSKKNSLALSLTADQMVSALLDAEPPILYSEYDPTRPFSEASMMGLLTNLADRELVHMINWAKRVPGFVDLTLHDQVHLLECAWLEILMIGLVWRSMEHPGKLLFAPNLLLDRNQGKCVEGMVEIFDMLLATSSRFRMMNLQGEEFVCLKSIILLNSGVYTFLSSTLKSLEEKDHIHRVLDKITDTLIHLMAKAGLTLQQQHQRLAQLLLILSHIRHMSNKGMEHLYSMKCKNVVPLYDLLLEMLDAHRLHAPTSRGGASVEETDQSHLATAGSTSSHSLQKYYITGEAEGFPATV
Nature of the data set: Binding affinity to ERalpha (unknown origin).

Data set [2] is described as follows: Thermodynamic solubility of the compound in phosphate buffered saline at pH 6.5. The class given is physicochemical. The following applies: read-out: Therm_solubility.
A further data set relates to MDR1 (P-gp). Briefly: Apparent permeability across basolateral to apical side in MDCK cells expressing human MDR1. The class given is ADME, cell-based, Canis lupus familiaris. The following applies: dog.
The nature of data set [3]: AUC in Wistar rat at 30 mg/kg, po administered as single dose measured up to 8 hrs post dose by LC-MS analysis. Also noted: time < 8 hr, dose 30 mg/kg, route oral. Type of data set: ADME, organism-based. The following applies: in vivo.
Data set [4] can be described thus: Volume of distribution at steady state in rat. The class given is ADME. The following applies: in vivo, read-out: Vdss.

For orientation: microsomal CLint means the capacity of the preparation to metabolise the compound, expressed as a volume cleared per time. Compound `O=C1COc2ccc(N3CCOC[C@H]3c3ccccc3)cc2N1` returned an intrinsic metabolic clearance (microsomal CLint) in data set [1] of 18.3 µL/min/mg.
As usually defined, the IC50 is the concentration needed to halve the response being measured. Low values mean inhibition by little substance, high ones a need for much substance. The term Papp B→A denotes the apparent permeability from the basolateral to the apical side of a cell layer. As a reminder, the AUC is concentration integrated over time. As to `C[C@@H]1CN(c2ccc3c(n2)NC(=O)CO3)[C@H](c2ccccc2)CO1`, the IC50 on Glucocorticoid receptor is 597 nM; at Estrogen receptor, above 10000 nM. Also, the solubility thermodynamic in data set [2] was 17 µM (≈ 5.53 µg/mL). Moreover, the Papp B→A in the data set with MDR1 (P-gp) turned out to be 24.7 ×10⁻⁶ cm/s. This compound also yielded an AUC at 8 h in data set [3] of 2850 ng·h/mL. For the same compound, in data set [4], the Vd turned out to be 6.15 L/kg.

(Values after ChEMBL document CHEMBL4024791, “Identification of Morpholino-2H-pyrido[3,2-b][1,4]oxazin-3(4H)-ones as Nonsteroidal Mineralocorticoid Antagonists” (J Med Chem, 2018).)
